Each structure is given as a SMILES string.

The subject of assay [1] is conscious spontaneously hypertensive rats (SHRs). Nature of the assay: Assay for antihypertensive activity (in vivo), telemetry. Also noted: species or system rat. The procedure:
The ability of the compounds of the invention to decrease blood pressure was evaluated in conscious spontaneously hypertensive rats (SHRs). SHRs (250-300 g) received a single oral dose of tested compounds. Systolic blood pressure (SBP) and heart rate were monitored by telemetry for 24 hrs after dosing. SBP was evaluated before (baseline) and at different time points (i.e. 2-6, 12, 21-24 hrs) following treatment by oral administration of the compounds. The data were processed both as the absolute value or as a delta between the absolute value and its own baseline.
The Dataquest IV telemetry system (Data Sciences International) was used for measurement of systolic pressure, diastolic pressure, mean arterial pressure, heart rate, and motor activity. The monitoring system consists of a transmitter (radio frequency transducer model TA11PA), receiver panel, consolidation matrix, and personal computer with accompanying software. Before the device was implanted, calibrations were verified to be accurate within ±3 mmHg. Rats were anesthetized with ketamine/xylazine/acepromazine, and the flexible catheter of the transmitter was surgically secured in the abdominal aorta just below the renal arteries. The transmitter was sutured subcutaneously. Rats were housed in individual cages after the operation. Each cage was placed over the receiver panel that was connected to the personal computer for data acquisition. The rats were unrestrained and free to move within their cages. Hemodynamic data were sampled every 2 minutes for 10 seconds.
Compared to Compound A (reference compound), the compounds of the invention provided BP lowering with extended peak effect and duration of action (see Data Table 2).

Assay [2] has as its system isolated rabbit thoracic aorta preparations. Briefly: Assay on vascular tone: vasorelaxation of noradrenaline-precontracted aortic rings. In kind it is cell-based. The settings on record: Oryctolagus cuniculus; rabbit aortic rings precontracted with noradrenaline 1 μM, functional endothelium; read-out: EC50 in vessel relaxation assay. On the procedure: The ability of the compounds of the invention to induce vasorelaxation in comparison to native angiotensin II receptor blockers (ARBs), was tested in vitro in isolated rabbit thoracic aorta preparations (Wanstall J. C. et al., Br. J. Pharmacol., 134:463-472, 2001). Male New Zealand rabbits were anaesthetized with thiopental-Na (50 mg/kg, iv), sacrificed by exsanguinations and then the thorax was opened and the aorta dissected. Aortic ring preparations (4 mm in length) were set up in physiological salt solution (PSS) at 37° C. in small organ chambers (5 ml). The composition of PSS was (mM): NaCl 130, NaHCO3 14.9, KH2PO4 1.2, MgSO4 1.2, HEPES 10, […] (95% O2/5% CO2; pH 7.4). Each ring was mounted under 2 g passive tension. Isometric tension was recorded with a Grass transducer (Grass FT03) attached to a BIOPAC MP150 System. Preparations were allowed to equilibrate for 1 h, and then contracted submaximally with noradrenaline (NA, 1 μM) and, when the contraction was stable, acetylcholine (ACh, 10 μM) was added. A relaxant response to ACh indicated the presence of a functional endothelium. […] When a stable precontraction was reached, a cumulative concentration-response curve to either of the vasorelaxant agents was obtained in the presence of a functional endothelium. Each arterial ring was exposed to only one combination of inhibitor and vasorelaxant. Moreover, the effect of the soluble guanylyl cyclase inhibitor ODQ (1-H-(1,2,4)-oxadiazol(4,3-a)quinoxalin-1-one) on vasorelaxation elicited by the compounds was examined preincubating the aortic rings with ODQ (10 μM) for 20 min.
Responses to relaxing agents are expressed as a percentage of residual contraction and plotted against concentration of test compound. EC50 values (where EC50 is the concentration producing 50% of the maximum relaxation to the test compound) were interpolated from these plots.
During the experimental period, the plateau obtained with NA was stable without significant spontaneous loss of contraction in the aortic rings. […]

Where [3] appears, read: 2-6 h after single oral dose, 10 mpk.
The mark [4] stands for this setting: 21-24 h after single oral dose, 10 mpk.
Setting [5] is: 12 h after single oral dose, 10 mpk.

As for `CCCCc1nc(Cl)c(C(=O)OCCOCCO[N+](=O)[O-])n1Cc1ccc(-c2ccccc2-c2nn[nH]n2)cc1` [A, reference compound], the “Δ SBP in SHR” value in assay [1] (setting [3]) is listed as −15 mmHg; in assay [1] (setting [4]) it was −8 mmHg; in assay [1] (setting [5]) it was −12 mmHg.

Turning to `CCCCc1nc(Cl)c(C(=O)OC(C)OC(=O)O[C@@H]2CO[C@H]3[C@@H]2OC[C@H]3OC(=O)CCCC(CO[N+](=O)[O-])O[N+](=O)[O-])n1Cc1ccc(-c2ccccc2-c2nnn[nH]2)cc1` (stereo partly drawn) [Example 1, 1-(((3R,3aR,6R,6aR)-6-(5,6-bis(nitrooxy)hexanoyloxy)hexahydrofuro[3,2-b]furan-3-yloxy)carbonyloxy)ethyl 1-((2′-(1H-tetrazol-5-yl)biphenyl-4-yl)methyl)-2-butyl-4-chloro-1H-imidazole-5-carboxylate], the EC50 (commonly the concentration at which the effect is half-maximal) in assay [2] stood at 6200 nM. Further, the “Δ SBP in SHR” value in assay [1] (setting [3]) is −19 mmHg; in assay [1] (setting [4]), −11 mmHg; in assay [1] (setting [5]), −14 mmHg.

Take `CCOc1nc2cccc(C(=O)OC(C)(C)OC(=O)O[C@@H]3CO[C@H]4[C@@H]3OC[C@H]4OC(=O)CCCC(CO[N+](=O)[O-])O[N+](=O)[O-])c2n1Cc1ccc(-c2ccccc2-c2nnn[nH]2)cc1` (stereo partly drawn) [Example 2, 2-(((3R,3aR,6R,6aR)-6-(5,6-bis(nitrooxy)hexanoyloxy)hexahydrofuro[3,2-b]furan-3-yloxy)carbonyloxy)propan-2-yl 1-((2′-(1H-tetrazol-5-yl)biphenyl-4-yl)methyl)-2-ethoxy-1H-benzo[d]imidazole-7-carboxylate]: the EC50 in assay [2] was determined as 270 nM. Also, the “Δ SBP in SHR” value in assay [1] (2-6 h after single oral dose, 3 mpk) is recorded as −37 mmHg; in assay [1] (21-24 h after single oral dose, 3 mpk), −33 mmHg; in assay [1] (12 h after single oral dose, 3 mpk), −34 mmHg.

Regarding `CCOc1nc2cccc(C(=O)OC(C)(C)OC(=O)O[C@@H]3CO[C@H]4[C@@H]3OC[C@H]4OC(=O)OCCC(C)(C)CC(CO[N+](=O)[O-])O[N+](=O)[O-])c2n1Cc1ccc(-c2ccccc2-c2nn[nH]n2)cc1` (stereo partly drawn) [Example 3, 2-(((3R,3aR,6R,6aR)-6-((3,3-dimethyl-5,6-bis(nitrooxy)hexyloxy)carbonyloxy)hexahydrofuro[3,2-b]furan-3-yloxy)carbonyloxy)propan-2-yl 1-((2′-(2H-tetrazol-5-yl)biphenyl-4-yl)methyl)-2-ethoxy-1H-benzo[d]imidazole-7-carboxylate], in assay [2], the EC50 is 180 nM.

These data come from patent publication US20110077279A1, “ANGIOTENSIN II RECEPTOR ANTAGONISTS” (priority 2008, published 2011).
